Test results: US12686664B2, “SOCE inhibitors and therapeutic uses thereof” (Institut National de la Santé et de la Recherche Médicale …, priority 2020, dated 2026)
pIC50: −log10 of the molar value. Counter-ions that a name gives are not always drawn. Like-named read-outs stand apart in the source and are kept apart here. Marks after values point to notes of the source that are not given here.

Tested on: store-operated Ca^2+ entry in PLP-B lymphocytes
Experiment: Store-operated Ca2+ entry after thapsigargin depletion of ER Ca2+ stores in PLP-B lymphocytes
Type: cell-based
Conditions: for pIC50: SOCE in PLP-B lymphocytes, average of three assays, ±0.5 μM
Protocol: The effects of the molecules developed were tested on PLP-B lymphocytes. Store-operated Ca^2+ entry was induced by depletion of Endoplasmic Reticulum Ca^2+ stores (ER Ca^2+ stores) with thapsigargin (Tg) in a Ca^2+-free medium and measured following the addition of 1.8 mM of CaCl2) in the extracellular medium. The results are compared to the results obtained for known SOCE inhibitors SKF-96365, GSK-7975A, Synta 66.

[1] = Lymphocyte, 1 μM, PLP-B lymphocytes, % of inhibition (−) or activation, DMSO control 100%, read-out: Effect on amplitude of SOCE Peak
[2] = Lymphocyte, PLP-B lymphocytes, % of inhibition (−) or activation, DMSO control 100%, read-out: Effect on amplitude of SOCE Peak
[3] = Lymphocyte, 50 μM, PLP-B lymphocytes, % of inhibition (−) or activation, DMSO control 100%, read-out: Effect on amplitude of SOCE Peak
[4] = Lymphocyte, 50 μM, thapsigargin (Tg) peak, PLP-B lymphocytes, % of inhibition (−) or activation, read-out: Effect on amplitude of Tg Peak
[5] = Lymphocyte, 100 μM, PLP-B lymphocytes, % of inhibition (−) or activation, DMSO control 100%, read-out: Effect on amplitude of SOCE Peak
[6] = Lymphocyte, 100 μM, thapsigargin (Tg) peak, PLP-B lymphocytes, % of inhibition (−) or activation, read-out: Effect on amplitude of Tg Peak
[7] = Lymphocyte, thapsigargin (Tg) peak, PLP-B lymphocytes, % of inhibition (−) or activation, read-out: Effect on amplitude of Tg Peak
[8] = Lymphocyte, 1 μM, thapsigargin (Tg) peak, PLP-B lymphocytes, % of inhibition (−) or activation, read-out: Effect on amplitude of Tg Peak

Structure (SMILES)	inhibition at 10 µM [2]	inhibition at 50 µM [3]	inhibition at 50 µM [4]	inhibition at 100 µM [5]	inhibition at 100 µM [6]	inhibition at 10 µM [7]	also measured
COc1ccc(CCCOc2ccc(CCn3cccn3)cc2)cc1 [Compound 6βp]							inhibition at 1 µM [1]: -16%; pIC50 (Lymphocyte): 4.60
COc1ccc(CCOc2ccc(CCn3ccc(C(F)(F)F)n3)cc2)cc1 [Compound 6βs]	13%	34%	6%	64%	10%		
COCOc1ccc(CCn2ncc3ccccc32)cc1 [6αae VAL3.32, 1-(4-(Methoxymethoxy)phenethyl)-1H-indazole]	-39%	-23%	19%	24%	27%	26%	
Oc1ccc(Cn2c(C(F)(F)F)nc3ccccc32)cc1 [9αc, 1-(4-hydroxyphenylmethyl)-2-trifluoromethyl-1H-Benzo[d]imidazol]	23%	16%	-1%	33%	-6%	6%	
COc1ccc(COc2ccc(CCn3cnc(C(F)(F)F)n3)cc2)cc1 [6βg DAD 3.472]		5%	18%	37%	25%		
COc1ccc(CCCOc2ccc(CCn3cnc4ccccc43)cc2)cc1 [6αn DAD 3-474]	-16%	-4%	-5%	25%	3%	5%	inhibition at 1 µM [1]: -1%; inhibition at 1 µM [8]: 11%
CS(=O)(=O)Oc1ccc(Cn2c(C(F)(F)F)nc3ccccc32)cc1 [8αc, 4-((2-(Trifluoromethyl)-1H-benzo[d]imidazol-1-yl)methyl)phenyl methane sulfonate]	14%	9%	-10%	24%	32%	-10%	
COc1ccc(CCOc2ccc(CCn3c(C(F)(F)F)nc4cc(N)ccc43)cc2)cc1 [6αm VAL 1-77]	-4%	12%	1%	55%	11%	1%	
c1ccc2c(c1)ncn2CCc1ccc(OCCc2ccc(OC3CCCCO3)cc2)cc1 (stereo not shown) [11αb, 1-(4-(4-((Tetrahydro-2H-pyran-2-yl)oxy)phenethoxy)phenethyl)-1H-benzo[d]imidazole]	29%	51%	2%			-2%	inhibition at 0.1 µM [2]: -28%; inhibition at 0.1 µM [7]: -11%; inhibition at 1 µM [1]: -41%; percent change in peak amplitude vs DMSO control (negative = inhibition, positive = activation) at 1 µM [8]: 0%; inhibition at 5 µM [2]: -16%; inhibition at 5 µM [7]: 2%; pIC50 (Lymphocyte): 5.17
COc1ccc(CCCOc2ccc(CCn3ncc4ccccc43)cc2)cc1 [6αaa DAD 4-574]	10.4%	16.4%	13.3%	31.6%	19.7%	23.1%	
CS(=O)(=O)Oc1ccc(Cn2nc(C(F)(F)F)cc2C(F)(F)F)cc1 [8βc]	12%	22%	2%	31%	21%	-4%	
COc1ccc(CCCOc2ccc(CCn3cncn3)cc2)cc1 [Compound 6βf]			18%			13%	Effect on amplitude of SOCE peak (100 μM, PLP-B lymphocytes, % of inhibition (−) or activation, DMSO control 100%): −10.0%
CS(=O)(=O)Oc1ccc(Cn2cnc3ccccc32)cc1 [8αa, 4-((1H-Benzo[d]imidazol-1-yl)methyl)phenyl methanesulfonate]	20%	9%	-5%	23%	7%	-1%	
COc1ccc(CCOc2cccc(CCn3cnc4ccccc43)c2)cc1 [6αp DAD 4-552]		29%	15%	71%	7%		
COc1ccc(COc2ccc(CCn3c(C(F)(F)F)nc4cc(N)ccc43)cc2)cc1 [6αt VAL 1-76]	3%	10%	-6%	34%	22%	-1%	
CS(=O)(=O)Oc1ccc(Cn2cncn2)cc1 [8βb, 4-((1H-1,2,4-Triazol-1-yl)methyl)phenyl methanesulfonate]	27%	41%	-2%	35%	6%	3%	inhibition at 0.1 µM [2]: 19%; inhibition at 0.1 µM [7]: 23%; inhibition at 1 µM [1]: 23%; inhibition at 1 µM [8]: 9%
Oc1ccc(CCn2cncn2)cc1 [12βa, 1-(4-Hydroxyphenylethyl)-1H-1,2,4-triazole hydrochloride]	8%	10%	14%	12%	8%	8%	
COCOc1ccc(CCn2cnc3ccccc32)cc1 [6αad VAL3.31, 1-(4-(Methoxymethoxy)phenethyl)-1H-benzo[d]imidazole]	-51%	-54%	9%	-5%	15%	10%	
Oc1ccc(CCn2ncc3ccccc32)cc1 [12αe, 1-(4-Hydroxyphenylethyl)-1H-indazole hydrochloride]	5%	18%	29%	8%	28%	11%	
COc1ccc(COc2ccc(CCn3cccn3)cc2)cc1 [6βm DAD 2.306]	-2%	-0.5%		-16.8%			
COc1ccc(CCCOc2ccc(CCn3c(C(F)(F)F)nc4cc(N)ccc43)cc2)cc1 [6αu VAL 1-75]	-6%	30%	-11%	68%	-5%	-5%	
c1ccc(CCCOc2ccc(CCn3ncc4ccccc43)cc2)cc1 [6αab DAD 4-575]	-20.8%	2.9%	20.7%	43.6%	24.2%	8.9%	
COc1ccc(COc2ccc(CCn3cnc4ccccc43)cc2)cc1 [6αz DAD 4-472]	15.4%	13.7%	1.9%	-5.9%	1.5%	1.6%	
Oc1ccc(CCn2cnc3cc(F)ccc32)cc1 [12αd, 5-Fluoro-1-(4-hydroxyphenylethyl)-1H-benzo[d]imidazol hydrochloride]	-2.7%	-3%	-4.2%	6.4%	-4.6%	-6%	
c1ccc(CCCOc2ccc(CCn3cnc4ccccc43)cc2)cc1 [6αm DAD 3-475]		4%	-7%	77%	-7%		
Oc1ccc(CCOc2ccc(CCn3cnc4cc(F)ccc43)cc2)cc1 [12αc, 5-Fluoro-1-(4-(4-hydroxyphenethoxy)phenethyl)-1H-benzo[d]imidazol hydrochloride]	-20%	-3%	-2%	-1%	-5%	-11%	
COc1ccc(CCCOc2ccc(CCn3cncn3)cc2)cc1 [6βe DAD 3.470]					31%		Effect on amplitude of SOCE peak (50 μM, PLP-B lymphocytes, % of inhibition (−) or activation, DMSO control 100%, listed as 6βe): −6.0%; Effect on amplitude of Tg Peak (50 μM, thapsigargin (Tg) peak, PLP-B lymphocytes, % of inhibition (−) or activation, listed as 6βe): −31.0# %; Effect on amplitude of SOCE peak (100 μM, PLP-B lymphocytes, % of inhibition (−) or activation, DMSO control 100%, listed as 6βe): −21.0# %
c1ccc(OCCOc2ccc(CCn3cnc4ccccc43)cc2)cc1 [6αae DAD 4-569]	-7.5%	-13.1%	7.6%	12.4%	12%	11.3%	
